Experimental data from patent publication US10494377B1, “Bergenin lipoic acid ester with antioxidant activity and a method of preparing the same” (SHAANXI UNIVERSITY OF SCIENCE AND TECHNOLOGY, priority 2018, dated 2019).

Columns and labels:
[1] = DPPH radical scavenging activity assay; format: biochemical; settings: for DPPH clearance rate: n = 3, 30 min, 517 nm; for scavenging effect on DPPH (in words): FIG. 1, 7.02-7020 ppm
Excerpt: The Antioxidant Activity of Bergenin Lipoic Acid Ester Measured by a DPPH Radical Scavenging Activity Assay
2,2-Diphenyl-1-picryl hydrazyl (DPPH) is an organic compound composed of a stable organic radical. In the DPPH molecule, due to the presence of multiple electron-withdrawing —NO2 and large π bonds of the benzene ring, nitrogen free radical is stabilized. Its methanol solution is purple and has a maximum absorption peak at 517 nm. After the addition of an antioxidant, DPPH captures an electron to be paired with the free electron, and the purple fades and turns into a yellow substance. The absorption at 517 nm disappears, and the degree of fading is quantitatively related to the number of electrons it captures. Based on this principle, a spectrophotometer is used to detect the change of the absorbance of the DPPH radical in the sample solution, and the ability of the sample to provide hydrogen atoms and scavenge free radicals can be measured.
Preparation of DPPH solution: measuring exact amount of 2,2-diphenyl-1-picryl hydrazyl (DPPH) and dissolving in methanol to prepare a 0.2 mmol/L DPPH solution, stored at 0° C. in dark.
Preparation of test solutions: Vc (vitamin C, positive control), bergenin lipoic acid ester (sample), bergenin (control), lipoic acid (control), and mixture of bergenin and lipoic acid (reference). The test solutions were serially diluted with acetonitrile, and four groups of controls were separately dissolved in a test tube with a certain amount of methanol to prepare the same concentration gradient as the sample.
Absorbance measurement: Take 2 mL of sample solution (Table 1, number B), add 2 mL of DPPH solution with concentration of 2*10^−4 moL/L, mix and react in the dark at room temperature for 30 min, adjust to zero with methanol, and measure at 517 nm. The absorbance Ai was simultaneously measured for the absorbance Aj of 2 mL of methanol mixed with 2 mL of the sample solution and the absorbance Ao of 2 mL of DPPH solution mixed with 2 mL of acetonitrile (The experimental results are shown in Table 2).
Clearance calculation: clearance rate (%) [1−(Ai−Aj)/Ao]*100%

[2] = Takahashi et al. 2003; cited from earlier work
[3] = Takahashi et al. 2003; cited from earlier work; remark: listed apart in the source

Compound | DPPH clearance rate ([1]; 7.02 ppm) [%] | DPPH clearance rate ([1]; 140.4 ppm) [%] | DPPH clearance rate ([1]; 702 ppm) [%] | DPPH clearance rate ([1]; 2808 ppm) [%] | DPPH clearance rate ([1]; 7020 ppm) [%] | scavenging effect on DPPH (in words) [1] | scavenging effect on DPPH (in words) ([1]; listed as bergenin lipoic acid ester) | scavenging ability compared with Vc (in words) ([1]; concentration above 2808 ppm) | scavenging effect on DPPH free radicals (in words) [2] | scavenging effect on superoxide anions (in words) [3]
COc1c(O)cc2c(c1O)C1OC(COC(=O)CCCCC3CCSS3)C(O)C(O)C1OC2=O (stereo not shown) [B, Bergenin lipoic acid ester] | 27.56 | 60.83 | 76.34 | 94.92 | 97.64 | better than E | significant scavenging effect on DPPH in a concentration-dependent manner | close to the scavenging ability of Vc |  | 
COc1c(O)cc2c(c1O)[C@@H]1O[C@H](CO)[C@@H](O)[C@H](O)[C@H]1OC2=O [C, Bergenin] | 15.57 | 19.79 | 30.98 | 54.56 | 90.01 |  |  |  | good scavenging effect | good scavenging effect
O=C1O[C@H]([C@@H](O)CO)C(O)=C1O [Vc, Vitamin C] | 82.01 | 95.17 | 95.70 | 99.90 | 99.90 |  |  |  |  | 
O=C(O)CCCCC1CCSS1 (stereo not shown) [D, Lipoic acid] | 20.40 | 28.64 | 39.66 | 60.54 | 82.95 |  |  |  |  | 
